Each structure is given as a SMILES string. Where “and” joins values, the source holds several entries; their conditions need not be identical. Identical values can stand only once.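 A five-concentration, 48-hour dose response in 96-well plates underlies each endpoint, interpolated linearly between surrounding concentrations. The concentration for 50% growth inhibition is given as GI50. TGI: total growth inhibition.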

Among the test systems are M19-MEL melanoma; P388/ADR leukemia; DMS 114 small cell lung; SNB-78 CNS; P388 leukemia; DMS 273 small cell lung; HOP-18 NSCLC; SN12K1 renal; LXFL 529 NSCLC.
Holding throughout (experiment): NCI tumour cell line growth inhibition, 48 h

`Cc1ccc(C(=O)Nc2ncn(C3CC(O)C(CO)O3)c(=O)n2)cc1` (stereo unspecified): the TGI is greater than 100 µM with M19-MEL melanoma; 29.5 µM in the assay with P388/ADR leukemia; greater than 100 µM with DMS 114 small cell lung; greater than 100 µM in the assay on SNB-78 CNS; greater than 100 µM in the assay with P388 leukemia; greater than 100 µM with DMS 273 small cell lung. For the same compound, the TGI in the assay with HOP-18 NSCLC and with SN12K1 renal was greater than 100 µM in each case.

Turning to `CCN(CCO)CCNc1ccc(C)c2sc3ccccc3c(=O)c12`, the TGI in the assay with M19-MEL melanoma worked out at 3.63 µM; in the assay on LXFL 529 NSCLC, 10.4 µM; in the assay with DMS 114 small cell lung, 20.6 µM; in the assay on SNB-78 CNS, 20.6 µM; in the assay on DMS 273 small cell lung it was 6.94 µM; in the assay on HOP-18 NSCLC, 24.3 µM.

Take `COc1ccc(N=Cc2ccc(N(CCC#N)S(=O)(=O)c3ccccc3)cc2C)cc1`: the TGI in the assay with M19-MEL melanoma, in the assay with LXFL 529 NSCLC, with DMS 114 small cell lung, in the assay with SNB-78 CNS and with HOP-18 NSCLC was greater than 100 µM throughout.

`CN1NC(c2ccccc2)=C(C#N)C(=O)CC1c1ccc(F)cc1` (stereo unspecified): the TGI with LXFL 529 NSCLC, with DMS 114 small cell lung, with SNB-78 CNS, in the assay on DMS 273 small cell lung and in the assay on HOP-18 NSCLC was greater than 100 µM throughout.

Consider `CCCCCCCCCCCCSC(=S)c1c(C)[nH]n(CCCCCCCCCCCC)c1=O`, for which the TGI with M19-MEL melanoma, in the assay on LXFL 529 NSCLC, with DMS 114 small cell lung, with SNB-78 CNS and with HOP-18 NSCLC was greater than 100 µM in each case.

In the case of `O=C(NC(Cc1ccc(Cl)cc1)C(=O)O)c1ccc(I)cc1` (stereo unspecified), the TGI in the assay on M19-MEL melanoma, with P388/ADR leukemia, in the assay with SNB-78 CNS, in the assay on P388 leukemia, with DMS 273 small cell lung and in the assay with HOP-18 NSCLC was greater than 100 µM in each case. This compound also returned a TGI in the assay with SN12K1 renal greater than 100 µM.

For `COc1cc(C2C(=O)C(Cl)N2Nc2nc(C)cc(=O)[nH]2)cc(OC)c1OC` (stereo unspecified), the TGI was greater than 100 µM in the assay with M19-MEL melanoma; 29.7 µM in the assay with LXFL 529 NSCLC; 65.8 µM with SNB-78 CNS; 24.2 µM in the assay on DMS 273 small cell lung; 28.1 µM with HOP-18 NSCLC.

For `C[C@H]1CCC/C=C/[C@@H]2C[C@H](O)C[C@H]2[C@H](O)/C=C/C(=O)O1`, the TGI is 0.00129 µM in the assay on M19-MEL melanoma; 0.0285 µM and 0.11 µM in the assay on LXFL 529 NSCLC; greater than 100 µM in the assay on SNB-78 CNS; 0.148 µM with DMS 273 small cell lung; 2.41 µM in the assay on HOP-18 NSCLC. For the same compound, the results for the GI50 with LXFL 529 NSCLC, in the assay on SNB-78 CNS and in the assay with DMS 273 small cell lung were 0.031 µM, 0.0324 µM and 0.0305 µM, respectively.

As for `O=C(CSSCC(=O)OCCS(=O)(=O)Nc1ccc(Br)cc1)OCCS(=O)(=O)Nc1ccc(Br)cc1`, the TGI in the assay with M19-MEL melanoma was 56.4 µM; in the assay with LXFL 529 NSCLC it was 34.1 µM; in the assay with DMS 114 small cell lung, 29.3 µM; with SNB-78 CNS, 71.3 µM; in the assay on DMS 273 small cell lung, 40.3 µM; with HOP-18 NSCLC, greater than 100 µM.

For the compound `COc1ccc(N=Nc2c(N)nn(C)c2N)cc1`, the TGI in the assay on M19-MEL melanoma, in the assay on LXFL 529 NSCLC, in the assay on DMS 114 small cell lung, with SNB-78 CNS, in the assay on DMS 273 small cell lung and with HOP-18 NSCLC was greater than 100 µM throughout.

Consider `COc1cccc(NC(=O)CC(=O)NN2C(=O)/C(=C/c3ccc(N(CCC#N)CCC#N)cc3)N=C2c2cc([N+](=O)[O-])ccc2Cl)c1`, for which the TGI with M19-MEL melanoma, with LXFL 529 NSCLC, with DMS 114 small cell lung, in the assay on SNB-78 CNS and in the assay on DMS 273 small cell lung was greater than 100 µM throughout.

Values taken from PubChem BioAssay (NCI).
